# Data from patent US7060477B2, “Epoxide hydrolases of aspergillus origin” (Centre National de la Recherche Scientifique, priority 1999, dated 2006).
# Where two headings read alike, the source gives them in different places.
# Assays:
# [1] = test system: epoxide hydrolase from Aspergillus niger; experiment: Effect of selective reagents and co-solvents on epoxide hydrolase activity (pNSO as substrate, diol formed by HPLC); format: biochemical; settings: for effect of co-solvent on the activity of epoxide hydrolase (opening of the epoxide): organic co-solvent for dissolving the substrate
# Description: (§1) Add 50 μL of the preparation containing the enzyme to 410 μL of 0.1 M sodium phosphate buffer pH 7.0 (buffer B) and pre-incubate the mixture at 35° C. for 2 min. Then add 40 μL of a 50 mM solution of racemic pNSO in DMF (final pNSO concentration: 4 mM).
# (§2) After 10 min of incubation, stop the reaction by adding 1 mL of dichloromethane. Stir the mixture vigorously so as to extract both the substrate and the diol produced. The quantity of diol formed is determined after separation on a column of silica by HPLC (high-pressure liquid chromatography) (Waters Associates, USA) as described previously (Nellaiah et al. 1996).
# One unit of epoxide hydrolase represents the quantity of enzyme that catalyses the formation of one μmol of diol per minute in the above conditions. After incubation with raw extracts, the quantity of diol formed increases linearly with time for at least 30 min, and the reaction rate is proportional to the concentration of the enzyme in the range of 0.01 to 1.2 units (Nellaiah et al., 1996).
# [2] = Enzymatic activity of recombinant epoxide hydrolase and mutants (conversion of R enantiomer of para-nitrostyrene oxide to diol); format: biochemical, Aspergillus niger; settings: 4-nitro-styrene oxide hydrolysed
# Description: in the Ncol site that contains the starting codon of the pGEF+ vector in the context adapted to a ribosome binding site, upstream of the promoter of the RNA polymerase T7. The resulting plasmid is called pGEF II hereinafter. The PCR fragment AfIII/Eco RI of the EH of Aspergillus is ligated in the Ncol/Eco RI site of pGEF II to produce the pGEF Asp EH″ expression construction. The E. coli strain BL21 (DE 3) (Novagen) is transformed with pGEF Asp EH and put in the LB medium at 30° C. In late exponential phase, induction of expression of the recombinant protein is effected by adding isopropyl-β-thiogalactoside (100 μM). After two hours, the bacteria are collected by centrifugation, resuspended in 0.02 volumes of culture of the STE buffer (Tris-HCl, 10 mM, sodium chloride 100 mM, ethylenediamine tetraacetic acid 1 mM, pH 7.4) and stored at −70° C. Enzymatic activity is determined by converting the R enantiomer of para-nitrostyrene oxide to the corresponding diol. The reaction is carried out at a substrate concentration of 880 μM in 500 μL STE at 37° C. for 30 min, in the presence of 10 μL of acetonitrile which is used as solvent of para-nitrostyrene oxide. […]
# The conversion substrate is quantified by adding 400 μL of supernatant to 800 μL of water and reading the optical density at 277 nm, with the molar extinction coefficient of the product being 9.1×10^3 M^−1 cm^−1. […]
# [3] = Isoelectric point by electrofocusing; format: physicochemical, Aspergillus niger; settings: pH gradient 3 to 9, silver nitrate staining
# Description: SDS-PAGE electrophoresis is carried out on a plate with thickness of 1 mm containing a resolving gel (10% of acrylamide) and a concentrating gel (4% of acrylamide) at pH 8.8 in the presence of 0.1% of sodium dodecyl sulphate (SDS) (Laemmli, 1970). The samples are dissolved in a Tris-HCl buffer (62.5 mM, […]) containing 1% (w/v) of SDS, 10% (v/v) of glycerol and 2% (v/v) of β-mercaptoethanol, and are heated at 100° C. for 2 minutes. The proteins are stained with 0.1% (w/v) of Coomassie blue. Migrations on non-denaturing PAGE gels were effected in the same way except that no β-mercaptoethanol was added to the resolving buffer, and that the samples were not heated. Electrofocusing was carried out with a pH gradient of 3–9 by means of the Pharmacia LKB “Phastsystem” system and standard Pharmacia procedures. The proteins were stained with silver nitrate.
# [4] = Hydrolysis of pNSO by the purified EH: pH/temperature profile, enantioselectivity, regioselectivity; format: biochemical, Aspergillus niger; design: activation energy: unit not given here
# Description: as §1, §2
# The incubations with H2[^18O] are carried out in 1 mL flasks containing 180 μL of H2[^18O] buffer B, 20 μL of the purified epoxide hydrolase and 20 μL of substrate (50 mM in acetonitrile). After 1.5 h of incubation at 25° C. with magnetic stirring (500 rpm) the substrate that remains and the product formed are extracted with 2 mL of dichloromethane. The diol is purified by analytical chromatography on silica (eluent: diethylether). 2 μL of samples are analysed by gas chromatography/mass spectrometry (GC/MS). The diol that remains is converted to the corresponding acetonide by reaction with […] in the presence of p-toluene sulphonic acid. The acetonide is analysed by GC/MS as already described by Audier et al., 1968.
# Reaction in a total volume of 5 mL is carried out at 25° C., with a substrate with a concentration of 4.3 mM with DMSO (20 vol.%) as co-solvent in a 0.1 M sodium phosphate buffer pH 8.0.
# The reaction is started by adding 13 U/L of the purified enzyme. Samples are taken every 30 minutes for quantification of the concentrations of the substrate and of product by HPLC using a reversed-phase column (Nellaiah et al., 1996) and for quantification of the enantiomeric excess of the epoxide and of the diol by gas-phase chromatography (Nellaiah et al., 1996).
# [5] = cited from earlier work
# [6] = purified EH of Aspergillus niger, pNSO substrate
molecule,measurement,setting,value
O=C([O-])c1cc[c]([Hg][OH])cc1 [4-hydroxy-mercuribenzoate],effect of selective reagent on the activity of the enzyme,[1]; [6],strong inactivation
CN(C)C=O [DMF],effect of co-solvent on the activity of epoxide hydrolase (opening of the epoxide),[1]; pNSO substrate,strongest activities
O=C(O)CN(CCN(CC(=O)O)CC(=O)O)CC(=O)O [EDTA],effect of selective reagent on the activity of the enzyme,[1],no effect
[Cl][Hg][Cl] [HgCl2],effect of selective reagent on the activity of the enzyme,[1]; [6],strong inactivation
C1CCOC1 [THF],effect of co-solvent on the activity of epoxide hydrolase (opening of the epoxide),[1]; pNSO substrate,low activity
CC(C)=O [acetone],effect of co-solvent on the activity of epoxide hydrolase (opening of the epoxide),[1]; pNSO substrate,strongest activities
N[C@@H](CS)C(=O)O [cysteine],effect of selective reagent on the activity of the enzyme,[1]; [6],positive effect
OO [hydrogen peroxide],effect of selective reagent on the activity of the enzyme,[1]; [6],strongly inhibit
NC(=O)CI [iodoacetamide],effect of selective reagent on the activity of the enzyme,[1]; [6],strong inactivation
O=C(OO)c1cccc(Cl)c1 [meta-chloroperbenzoic acid],effect of selective reagent on the activity of the enzyme,[1]; [6],strongly inhibit
OCCS [β-mercaptoethanol],effect of selective reagent on the activity of the enzyme,[1]; [6],positive effect
phenylmethane sulphonyl chloride [PMSF],effect of selective reagent on the activity of the enzyme,[1]; [6],no effect
"EH from Aspergillus niger: fungal epoxide hydrolase represented by SEQ ID NO: 2, purified from Aspergillus niger LCP521 or recombinant in E. coli (protein, Aspergillus niger) MSAPFAKFPSSASISPNPFTVSIPDEQLDDLKTLVRLSKIAPPTYESLQADGRFGITSEWLTTMREKWLSEFDWRPFEARLNSFPQFTTEIEGLTIHFAALFSEREDAVPIALLHGWPGSFVEFYPILQLFREEYTPETLPFHLVVPSLPGYTFSSGPPLDKDFGLMDNARVVDQLMKDLGFGSGYIIQGGDIGSFVGRLLGVGFDACKAVHLNLCAMRAPPEGPSIESLSAAEKEGIARMEKFMTDGLAYAMEHSTRPSTIGHVLSSSPIALLAWIGEKYLQWVDKPLPSETILEMVSLYWLTESFPRAIHTYRETTPTASAPNGATMLQKELYIHKPFGFSFFPKDLCPVPRSWIATTGNLVFFRDHAEGGHFAALERPRELKTDLTAFVEQVWQK",specific activity,[2],100 μmol per minute and milligram
same,isoelectric point,[3],4.5
same,pH of maximum activity,[4],7 pH
same,temperature of maximum activity,[4],40 °C
same,regioselectivity of the reaction,"[4]; for the 2 carbon, pNSO",97%
same,activation energy,[4]; from 2 to 40° C.,27
same,ratio of the specific constant (kcat/Km): initial rate of hydrolysis of (R) enantiomer versus (S) enantiomer,[4]; starting from racemic pNSO,55 times
"rat microsomal epoxide hydrolase (mEH): rat microsomal epoxide hydrolase, literature comparison enzyme (protein, UniProt P07687 1-455, looked up) Epoxide hydrolase 1: MWLELVLASLLGFVIYWFVSRDKEETLPLGDGWWGPGSKPSAKEDESIRPFKVETSDEEIKDLHQRIDRFRASPPLEGSRFHYGFNSNYMKKVVSYWRNEFDWRKQVEILNQYPHFKTKIEGLDIHFIHVKPPQLPSGRTPKPLLMVHGWPGSFYEFYKIIPLLTDPKSHGLSDEHVFEVICPSIPGYGYSEASSKKGLNSVATARIFYKLMTRLGFQKFYIQGGDWGSLICTNMAQMVPNHVKGLHLNMAFISRSFYTMTPLLGQRFGRFLGYTEKDIELLYPYKEKVFYSIMRESGYLHIQATKPDTVGCALNDSPVGLAAYILEKFSTWTKSEYRELEDGGLERKFSLDDLLVNIMIYWTTGTIVSSQRYYKENLGQGIMVHKHEGMKVFVPTGFSAFPSELLHAPEKWVKVKYPKLISYSYMERGGHFAAFEEPKLLAQDIRKFVSLAELQ",conversion number increased by a factor,[5]; on replacing Glu^404 of the charge relay system with aspartic acid,30
same,specific activity,[5]; styrene oxide and benzo[α]pyrene oxide,about 500 nmol converted per minute and milligram of pure enzyme
